The values that follow come from US10206394B2, “Herbicidal compounds” (Syngenta Participations AG, priority 2014, dated 2019).

Holding throughout (assay): Glasshouse assay for herbicidal activity (pre- and post-emergence), percentage phytotoxicity
Assay type in all cases: in vivo

In experiment [1] the test system is Alopecurus myosuroides (ALOMY). The note with it: Alopecurus myosuroides. A digest of the protocol: (§1)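 Herbicide was applied to potted plants sown in standard soil, one day after sowing for PRE and after about 12 days for POST. Visual percentage damage ratings followed at 15 DAA (POST) and 20 DAA (PRE).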
Experiment [2] has as its system Echinochloa crus-galli (ECHCG). The following applies: Echinochloa crus-galli. A digest of the protocol: as §1
A further experiment concerns Avena fatua (AVEFA). The following applies: Avena fatua. The gist of the method: as §1
A further experiment deals with Lolium perenne (LOLPE). The following applies: Lolium perenne. A digest of the protocol: as §1
The mark [3] stands for this setting: post-emergence, 360 h, POST-emergence, rate 250 g/ha, visual score 15 DAA (100%=total damage, 0%=no damage), read-out: Post-emergence herbicidal activity (percentage phytotoxicity) ALOMY POST.
The mark [4] stands for this setting: pre-emergence, 480 h, PRE-emergence, rate 250 g/ha, visual score 20 DAA (100%=total damage, 0%=no damage), read-out: Pre-emergence herbicidal activity (percentage phytotoxicity) ALOMY PRE.
The mark [5] stands for this setting: post-emergence, 360 h, POST-emergence, rate 250 g/ha, visual score 15 DAA (100%=total damage, 0%=no damage), read-out: Post-emergence herbicidal activity (percentage phytotoxicity) ECHCG POST.
[6] abbreviates: pre-emergence, 480 h, PRE-emergence, rate 250 g/ha, visual score 20 DAA (100%=total damage, 0%=no damage), read-out: Pre-emergence herbicidal activity (percentage phytotoxicity) ECHCG PRE.
Setting [7] is: post-emergence, 360 h, POST-emergence, rate 250 g/ha, visual score 15 DAA (100%=total damage, 0%=no damage), read-out: Post-emergence herbicidal activity (percentage phytotoxicity) AVEFA POST.
[8] abbreviates: pre-emergence, 480 h, PRE-emergence, rate 250 g/ha, visual score 20 DAA (100%=total damage, 0%=no damage), read-out: Pre-emergence herbicidal activity (percentage phytotoxicity) AVEFA PRE.
Where [9] appears, read: post-emergence, 360 h, POST-emergence, rate 250 g/ha, visual score 15 DAA (100%=total damage, 0%=no damage), read-out: Post-emergence herbicidal activity (percentage phytotoxicity) LOLPE POST.
Setting [10] is: pre-emergence, 480 h, PRE-emergence, rate 250 g/ha, visual score 20 DAA (100%=total damage, 0%=no damage), read-out: Pre-emergence herbicidal activity (percentage phytotoxicity) LOLPE PRE.
The mark [11] stands for this setting: post-emergence, 360 h, 250 g/ha, post-emergence, 15 DAA, visual assessment (100%=total damage, 0%=no damage), read-out: Post-emergence herbicidal activity (percentage phytotoxicity) ALOMY POST.
Setting [12] is: pre-emergence, 480 h, 250 g/ha, pre-emergence, 20 DAA, visual assessment (100%=total damage, 0%=no damage), read-out: Pre-emergence herbicidal activity (percentage phytotoxicity) ALOMY PRE.
[13] abbreviates: post-emergence, 360 h, 250 g/ha, post-emergence, 15 DAA, visual assessment (100%=total damage, 0%=no damage), read-out: Post-emergence herbicidal activity (percentage phytotoxicity) ECHCG POST.
The mark [14] stands for this setting: pre-emergence, 480 h, 250 g/ha, pre-emergence, 20 DAA, visual assessment (100%=total damage, 0%=no damage), read-out: Pre-emergence herbicidal activity (percentage phytotoxicity) ECHCG PRE.
[15] abbreviates: post-emergence, 360 h, 250 g/ha, post-emergence, 15 DAA, visual assessment (100%=total damage, 0%=no damage), read-out: Post-emergence herbicidal activity (percentage phytotoxicity) AVEFA POST.
The mark [16] stands for this setting: pre-emergence, 480 h, 250 g/ha, pre-emergence, 20 DAA, visual assessment (100%=total damage, 0%=no damage), read-out: Pre-emergence herbicidal activity (percentage phytotoxicity) AVEFA PRE.
Setting [17] is: post-emergence, 360 h, 250 g/ha, post-emergence, 15 DAA, visual assessment (100%=total damage, 0%=no damage), read-out: Post-emergence herbicidal activity (percentage phytotoxicity) LOLPE POST.
[18] abbreviates: pre-emergence, 480 h, 250 g/ha, pre-emergence, 20 DAA, visual assessment (100%=total damage, 0%=no damage), read-out: Pre-emergence herbicidal activity (percentage phytotoxicity) LOLPE PRE.

SMILES strings stand for the structures. Read-outs that look alike come from different tables or passages of the source.

Regarding `COCC(C)NC(=O)CC1CC(=O)C(c2c(C)cc(-c3ccc(F)cn3)cc2C)C1=O` (stereo not drawn) [Compound B391], the pest or weed control at 250 g/ha amounted to 90% in experiment [1] (post-emergence, 360 h, Rate 250 g/ha, post-emergence, visual assessment 15 DAA, 100%=total damage, 0%=no damage, read-out: Post-emergence herbicidal activity (percentage phytotoxicity) ALOMY POST); 90% in experiment [1] (pre-emergence, 480 h, Rate 250 g/ha, pre-emergence, visual assessment 20 DAA, 100%=total damage, 0%=no damage, read-out: Pre-emergence herbicidal activity (percentage phytotoxicity) ALOMY PRE); 100% in experiment [2] (post-emergence, 360 h, Rate 250 g/ha, post-emergence, visual assessment 15 DAA, 100%=total damage, 0%=no damage, read-out: Post-emergence herbicidal activity (percentage phytotoxicity) ECHCG POST); 100% in experiment [2] (pre-emergence, 480 h, Rate 250 g/ha, pre-emergence, visual assessment 20 DAA, 100%=total damage, 0%=no damage, read-out: Pre-emergence herbicidal activity (percentage phytotoxicity) ECHCG PRE); 100% in the experiment on Avena fatua (AVEFA) (post-emergence, 360 h, Rate 250 g/ha, post-emergence, visual assessment 15 DAA, 100%=total damage, 0%=no damage, read-out: Post-emergence herbicidal activity (percentage phytotoxicity) AVEFA POST); 100% in the experiment on Avena fatua (AVEFA) (pre-emergence, 480 h, Rate 250 g/ha, pre-emergence, visual assessment 20 DAA, 100%=total damage, 0%=no damage, read-out: Pre-emergence herbicidal activity (percentage phytotoxicity) AVEFA PRE). Further, the pest or weed control at 250 g/ha with Lolium perenne (LOLPE) (post-emergence, 360 h, Rate 250 g/ha, post-emergence, visual assessment 15 DAA, 100%=total damage, 0%=no damage, read-out: Post-emergence herbicidal activity (percentage phytotoxicity) LOLPE POST) was found to be 90%; in the experiment on Lolium perenne (LOLPE) (pre-emergence, 480 h, Rate 250 g/ha, pre-emergence, visual assessment 20 DAA, 100%=total damage, 0%=no damage, read-out: Pre-emergence herbicidal activity (percentage phytotoxicity) LOLPE PRE), 100%.
For `Cc1cc(-c2ncc(F)cc2F)cc(C)c1C1C(=O)CC(CC(=O)NC(C)C)C1=O` (stereo not drawn) [Compound B203], the pest or weed control at 250 g/ha (in experiment [1] (setting [3]); in experiment [1] (setting [4]); in experiment [2] (setting [5]); in experiment [2] (setting [6]); with Avena fatua (AVEFA) (setting [7]); in the experiment on Avena fatua (AVEFA) (setting [8])) was 100% in each case. For the same molecule, the pest or weed control at 250 g/ha in the experiment on Lolium perenne (LOLPE) (setting [9]) and in the experiment on Lolium perenne (LOLPE) (setting [10]) was 100% each time.
Turning to `CCc1cc(OCC(F)(F)F)cc(C)c1C1C(=O)CC(CC(=O)NCc2ccc(C#N)cc2)C1=O` (stereo not drawn) [Compound B216], the pest or weed control at 250 g/ha was found to be 100% in experiment [1] (setting [3]); 80% in experiment [1] (setting [4]); 100% in experiment [2] (setting [5]); 90% in experiment [2] (setting [6]); 90% in the experiment on Avena fatua (AVEFA) (setting [7]); 70% with Avena fatua (AVEFA) (setting [8]). Moreover, the pest or weed control at 250 g/ha stood at 90% in the experiment on Lolium perenne (LOLPE) (setting [9]) and 70% with Lolium perenne (LOLPE) (setting [10]).
On to `Cc1cc(C)c(C2C(=O)CC(CC(=O)N(C)C(C)(C)C)C2=O)c(C)c1` (stereo not drawn) [Compound B80], for which the pest or weed control at 250 g/ha came out at 80% in experiment [1] (setting [11]); 90% in experiment [1] (setting [12]); 90% in experiment [2] (setting [13]); 90% in experiment [2] (setting [14]); 60% in the experiment with Avena fatua (AVEFA) (setting [15]); 0% in the experiment on Avena fatua (AVEFA) (setting [16]). The figures for the pest or weed control at 250 g/ha in the experiment on Lolium perenne (LOLPE) (setting [17]) and in the experiment with Lolium perenne (LOLPE) (setting [18]) were 90% and 100%, respectively.
For the molecule `C=CC(C)NC(=O)CC1CC(=O)C(c2c(C)cc(Br)cc2C)C1=O` (stereo not drawn) [Compound B301], the pest or weed control at 250 g/ha in experiment [1] (setting [3]) was found to be 70%; in experiment [1] (setting [4]) it was 80%; in experiment [2] (setting [5]), 70%; in experiment [2] (setting [6]) it was 60%; in the experiment on Avena fatua (AVEFA) (setting [7]), 70%; in the experiment on Avena fatua (AVEFA) (setting [8]), 50%. The pest or weed control at 250 g/ha came out at 50% with Lolium perenne (LOLPE) (setting [9]) and 70% in the experiment with Lolium perenne (LOLPE) (setting [10]).
`COC(=O)c1cccc(CNC(=O)CC2CC(=O)C(c3c(C)cc(C)cc3C)C2=O)c1` (stereo not drawn) [Compound B10]: the pest or weed control at 250 g/ha in experiment [1] (setting [11]) came to 30%; in experiment [1] (setting [12]), 0%; in experiment [2] (setting [13]), 70%; in experiment [2] (setting [14]), 0%; with Avena fatua (AVEFA) (setting [15]), 70%; in the experiment on Avena fatua (AVEFA) (setting [16]) it was 0%. The pest or weed control at 250 g/ha in the experiment on Lolium perenne (LOLPE) (setting [17]) was determined as 30%; in the experiment with Lolium perenne (LOLPE) (setting [18]) it was 0%.
As to `C#Cc1cccc(CNC(=O)CC2CC(=O)C(c3c(C)cc(C)cc3C)C2=O)c1` (stereo not drawn) [Compound B86], the pest or weed control at 250 g/ha in experiment [1] (setting [11]) is 70%; in experiment [1] (setting [12]), 70%; in experiment [2] (setting [13]), 90%; in experiment [2] (setting [14]), 80%; in the experiment on Avena fatua (AVEFA) (setting [15]) it was 100%; in the experiment on Avena fatua (AVEFA) (setting [16]) it was 60%. Also, the pest or weed control at 250 g/ha in the experiment on Lolium perenne (LOLPE) (setting [17]) was 100%; in the experiment with Lolium perenne (LOLPE) (setting [18]), 90%.
`Cc1cc(C)c(C2C(=O)CC(CC(=O)NC(C)(C)c3ccccc3)C2=O)c(C)c1` (stereo not drawn) [Compound B29]: the pest or weed control at 250 g/ha in experiment [1] (setting [11]) worked out at 70%; in experiment [1] (setting [12]) it was 30%; in experiment [2] (setting [13]) it was 70%; in experiment [2] (setting [14]), 80%; in the experiment with Avena fatua (AVEFA) (setting [15]), 60%; in the experiment with Avena fatua (AVEFA) (setting [16]), 10%. Besides, the pest or weed control at 250 g/ha in the experiment with Lolium perenne (LOLPE) (setting [17]) is 70%; with Lolium perenne (LOLPE) (setting [18]) it was 80%.
On to `CCCN(CC1CC1)C(=O)CC1CC(=O)C(c2c(C)cc(C)cc2C)C1=O` (stereo not drawn) [Compound B79], for which the pest or weed control at 250 g/ha in experiment [1] (setting [11]) is 60%; in experiment [1] (setting [12]), 60%; in experiment [2] (setting [13]), 60%; in experiment [2] (setting [14]), 80%; in the experiment on Avena fatua (AVEFA) (setting [15]), 10%; with Avena fatua (AVEFA) (setting [16]) it was 0%. The pest or weed control at 250 g/ha in the experiment with Lolium perenne (LOLPE) (setting [17]) and in the experiment with Lolium perenne (LOLPE) (setting [18]) was 80% in each case.
Turning to `CCCNC(=O)CC1CC(=O)C(c2c(C)cc(Br)cc2C)C1=O` (stereo not drawn) [Compound B145], the pest or weed control at 250 g/ha in experiment [1] (setting [11]) stood at 80%; in experiment [1] (setting [12]) it was 70%; in experiment [2] (setting [13]) it was 80%; in experiment [2] (setting [14]), 80%; in the experiment on Avena fatua (AVEFA) (setting [15]), 90%; in the experiment with Avena fatua (AVEFA) (setting [16]), 60%. Further, the pest or weed control at 250 g/ha with Lolium perenne (LOLPE) (setting [17]) and in the experiment on Lolium perenne (LOLPE) (setting [18]) was 90% each time.
Take `Cc1cc(Br)cc(C)c1C1C(=O)CC(CC(=O)NCC2CC2(Cl)Cl)C1=O` (stereo not drawn) [Compound B141]: the pest or weed control at 250 g/ha in experiment [1] (setting [11]) stood at 80%; in experiment [1] (setting [12]) it was 90%; in experiment [2] (setting [13]), 80%; in experiment [2] (setting [14]), 70%; in the experiment on Avena fatua (AVEFA) (setting [15]) it was 90%; in the experiment on Avena fatua (AVEFA) (setting [16]), 60%. The pest or weed control at 250 g/ha in the experiment on Lolium perenne (LOLPE) (setting [17]) and in the experiment on Lolium perenne (LOLPE) (setting [18]) was 80% in each case.
`CCc1cc(OCC(F)(F)F)cc(C)c1C1C(=O)CC(CC(N)=O)C1=O` (stereo not drawn) [Compound B167]: the pest or weed control at 250 g/ha in experiment [1] (setting [3]) came out at 100%; in experiment [1] (setting [4]), 100%; in experiment [2] (setting [5]) it was 100%; in experiment [2] (setting [6]) it was 100%; in the experiment with Avena fatua (AVEFA) (setting [7]), 100%; with Avena fatua (AVEFA) (setting [8]), 90%. The pest or weed control at 250 g/ha with Lolium perenne (LOLPE) (setting [9]) came to 90%; with Lolium perenne (LOLPE) (setting [10]), 100%.
